Assay results: US20100184596A1, “METHOD FOR THE CONTROL OF WEEDS IN TURF” (SYNGENTA CROP PROTECTION, INC., priority 2007, published 2010)

Legend:
Assay type in all cases: in vivo
[1] = tested on: Trifolium repens (clover); assay: Weed control via post emergence spray, in bluegrass/fescue mix (Table B5.6)
Protocol: (§1) The weed control efficacy of the compound of formula I was tested. The compound was applied via post emergence spray to a range of weeds, at various rates and spray treatment treatment regimes. Percentage weed control assessments were taken at various timepoints.

[2] = tested on: Kentucky bluegrass (3D blend); assay: Phytotoxicity via post emergence spray application (Table B2.6); details: 1 appl
Protocol: (§2) The phytotoxicity of the compound of formula I to turfgrass species was tested. The compound was applied via post emergence spray to a range of warm and cool season turfgrass species at various rates and spray treatment treatment regimes. Percentage phytotoxicity assessments were taken at various timepoints.

turfgrass = assay: Example B4, conclusion in words; details: in combination with a safener
Protocol: (§3) The phytotoxicity to turfgrass of the compound of formula I in combination with various safeners was tested. The combinations were applied by post emergence spray application. Percentage phytotoxicity assessments were taken at various timepoints. The safeners tested in these trials were cloquintocet-mexyl, cyprosulfamide, a compound of formula 2.3, and isoxadifen-ethyl.

[3] = tested on: St. Augustinegrass v. Delmar; assay: Phytotoxicity via post emergence spray application (Table B2.8); details: 1 appl
Protocol: as §2

[4] = tested on: Hydrocotyle sp. (dollarweed); assay: Weed control via post emergence spray, in St. Augustinegrass v. Floratam (Table B5.3)
Protocol: as §1

[5] = tested on: Hydrocotyle sp. (dollarweed); assay: Weed control in combination with safeners, post emergence spray, in St. Augustinegrass v. Delmar (Table B7.1); details: no safener, 100 g ai/ha
Protocol: The weed control efficacy of the compound of formula I in combination with various safeners was tested. The combinations were applied by post emergence spray application. Percentage weed control assessments were taken at various timepoints.

[6] = tested on: Bermudagrass v. Tifway 419; assay: Phytotoxicity in combination with safeners, post emergence spray (Table B4.3); details: no safener, 100 g ai/ha
Protocol: as §3

Tall fescue v. Coronado = assay: Phytotoxicity of granule formulations with safeners (Table B4.4); details: 8 DAT
Protocol: as §3
Tables B4.4 and B4.5 present the results of trials using safeners applied in combination with granule formulations of the compound of formula I.

[7] = tested on: clover and dandelion in turfgrass varieties; assay: Example B1, conclusion in words; details: in Kentucky bluegrass, tall fescue and perennial ryegrass at the tested application rates
Protocol: The selectivity of the compound of formula I in turf (removal of grassy and broadleaf weeds) has been tested in turfgrass varieties selected from Kentucky bluegrass, tall fescue and perennial ryegrass and in […] selected from clover (an aggressive perennial weed) and dandelion (a weed of perennial horticultural crops and gardens which may also be a problem in some annual crops, particularly where reduced tillage is practiced).
The trials were conducted in Champaign, Ill., U.S. (Table B1.1) and Hudson, N.Y., U.S. (Table B1.2) under field conditions. Turfgrasses were maintained at approximately a 2.5″ height, like a home lawn. Mixed turf and weed stands were present. The test compounds were applied with a CO2 pressurized backpack sprayer by spraying in the form of an aqueous suspension (prepared from a wettable powder) in a concentration of 210 to 280 g/ha. The plots were then mowed and irrigated as needed. After 22 and 28 days respectively, the test is visually evaluated (100%=total damage to plant; 0%=no damage to plant).

turfgrass weeds = assay: Example B5, conclusion in words; details: post emergence spray
Protocol: as §1

`COCCOCc1nc(C(F)(F)F)ccc1C(=O)C1=C(O)C2CCC(C2)C1=O` (centres unmarked) [Formula I, 4-Hydroxy-3-[2-(2-methoxyethoxymethyl)-6-trifluoromethylpyridine-3-carbonyl]-bicyclo[3.2.1]oct-3-en-2-one] was tested, and the “% control” value ([1]; 10 g ai/ha, 7 DAT) was 0.00%, the “% control” value ([1]; 10 g ai/ha, 14 DAT) was 21.25% and the “% control” value ([1]; 10 g ai/ha, 22 DAT) was 23.75%. The “% control” value ([1]; 10 g ai/ha, 29 DAT) was 8.75%, the “% control” value ([1]; 10 g ai/ha, 46 DAT) was 10.00% and the “% control” value ([1]; 20 g ai/ha, 7 DAT) was 0.00%. The “% control” value ([1]; 20 g ai/ha, 14 DAT) was 22.50%, the “% control” value ([1]; 20 g ai/ha, 22 DAT) was 28.75% and the “% control” value ([1]; 20 g ai/ha, 29 DAT) was 22.50%. For the same compound, the “% control” value ([1]; 20 g ai/ha, 46 DAT) was 28.75%, the “% control” value ([1]; 40 g ai/ha, 7 DAT) was 11.25% and the “% control” value ([1]; 40 g ai/ha, 14 DAT) was 21.25%. The “% control” value ([1]; 40 g ai/ha, 22 DAT) was 22.50%, the “% control” value ([1]; 40 g ai/ha, 29 DAT) was 35.00% and the “% control” value ([1]; 40 g ai/ha, 46 DAT) was 47.50%. The “% control” value ([1]; 80 g ai/ha, 7 DAT) was 17.50%, the “% control” value ([1]; 80 g ai/ha, 14 DAT) was 22.50% and the “% control” value ([1]; 80 g ai/ha, 22 DAT) was 30.00%. For the same compound, the “% control” value ([1]; 80 g ai/ha, 29 DAT) was 52.50%, the “% control” value ([1]; 80 g ai/ha, 46 DAT) was 81.25% and the “% control” value ([1]; 160 g ai/ha, 7 DAT) was 22.50%. The “% control” value ([1]; 160 g ai/ha, 14 DAT) was 27.50%, the “% control” value ([1]; 160 g ai/ha, 22 DAT) was 41.25% and the “% control” value ([1]; 160 g ai/ha, 29 DAT) was 76.25%. The “% control” value ([1]; 160 g ai/ha, 46 DAT) was 91.25%, the “% phytotoxicity” value ([2]; 10 g ai/ha, 4 DAT) was 7.50% and the “% phytotoxicity” value ([2]; 10 g ai/ha, 12 DAT) was 0.00%. For the same compound, the “% phytotoxicity” value ([2]; 10 g ai/ha, 22 DAT) was 0.00%, the “% phytotoxicity” value ([2]; 10 g ai/ha, 33 DAT) was 0.00% and the “% phytotoxicity” value ([2]; 10 g ai/ha, 42 DAT) was 0.00%. For the same compound, the “% phytotoxicity” value ([2]; 10 g ai/ha, 160 DAT) was 0.00%, the “% phytotoxicity” value ([2]; 20 g ai/ha, 4 DAT) was 2.50% and the “% phytotoxicity” value ([2]; 20 g ai/ha, 12 DAT) was 0.00%. For the same compound, the “% phytotoxicity” value ([2]; 20 g ai/ha, 22 DAT) was 0.00%, the “% phytotoxicity” value ([2]; 20 g ai/ha, 33 DAT) was 0.00% and the “% phytotoxicity” value ([2]; 20 g ai/ha, 42 DAT) was 0.00%. For the same compound, the “% phytotoxicity” value ([2]; 20 g ai/ha, 160 DAT) was 0.00%, the “% phytotoxicity” value ([2]; 40 g ai/ha, 4 DAT) was 7.50% and the “% phytotoxicity” value ([2]; 40 g ai/ha, 12 DAT) was 0.00%. For the same compound, the “% phytotoxicity” value ([2]; 40 g ai/ha, 22 DAT) was 0.00%, the “% phytotoxicity” value ([2]; 40 g ai/ha, 33 DAT) was 0.00% and the “% phytotoxicity” value ([2]; 40 g ai/ha, 42 DAT) was 0.00%. For the same compound, the “% phytotoxicity” value ([2]; 40 g ai/ha, 160 DAT) was 0.00%, the “% phytotoxicity” value ([2]; 80 g ai/ha, 4 DAT) was 7.50% and the “% phytotoxicity” value ([2]; 80 g ai/ha, 12 DAT) was 0.00%. For the same compound, the “% phytotoxicity” value ([2]; 80 g ai/ha, 22 DAT) was 0.00%, the “% phytotoxicity” value ([2]; 80 g ai/ha, 33 DAT) was 0.00% and the “% phytotoxicity” value ([2]; 80 g ai/ha, 42 DAT) was 0.00%. The “% phytotoxicity” value ([2]; 80 g ai/ha, 160 DAT) was 0.00%, the “% phytotoxicity” value ([2]; 160 g ai/ha, 4 DAT) was 7.50% and the “% phytotoxicity” value ([2]; 160 g ai/ha, 12 DAT) was 0.00%. The “% phytotoxicity” value ([2]; 160 g ai/ha, 22 DAT) was 0.00%, the “% phytotoxicity” value ([2]; 160 g ai/ha, 33 DAT) was 0.00% and the “% phytotoxicity” value ([2]; 160 g ai/ha, 42 DAT) was 0.00%. For the same compound, the “% phytotoxicity” value ([2]; 160 g ai/ha, 160 DAT) was 0.00%, the “phytotoxicity in combination with a safener, in words” value (turfgrass) was “reduces the level of phytotoxicity to turfgrass” and the “% phytotoxicity” value ([3]; 10 g ai/ha, 5 DAT) was 5.00%. For the same compound, the “% phytotoxicity” value ([3]; 10 g ai/ha, 12 DAT) was 5.00%, the “% phytotoxicity” value ([3]; 10 g ai/ha, 18 DAT) was 0.00% and the “% phytotoxicity” value ([3]; 10 g ai/ha, 28 DAT) was 0.00%. The “% phytotoxicity” value ([3]; 20 g ai/ha, 5 DAT) was 6.67%, the “% phytotoxicity” value ([3]; 20 g ai/ha, 12 DAT) was 6.67% and the “% phytotoxicity” value ([3]; 20 g ai/ha, 18 DAT) was 2.00%. For the same compound, the “% phytotoxicity” value ([3]; 20 g ai/ha, 28 DAT) was 0.00%, the “% phytotoxicity” value ([3]; 40 g ai/ha, 5 DAT) was 11.67% and the “% phytotoxicity” value ([3]; 40 g ai/ha, 12 DAT) was 18.33%. The “% phytotoxicity” value ([3]; 40 g ai/ha, 18 DAT) was 4.00%, the “% phytotoxicity” value ([3]; 40 g ai/ha, 28 DAT) was 0.00% and the “% phytotoxicity” value ([3]; 80 g ai/ha, 5 DAT) was 16.67%. For the same compound, the “% phytotoxicity” value ([3]; 80 g ai/ha, 12 DAT) was 30.00%, the “% phytotoxicity” value ([3]; 80 g ai/ha, 18 DAT) was 5.00% and the “% phytotoxicity” value ([3]; 80 g ai/ha, 28 DAT) was 0.67%. For the same compound, the “% phytotoxicity” value ([3]; 160 g ai/ha, 5 DAT) was 23.33%, the “% phytotoxicity” value ([3]; 160 g ai/ha, 12 DAT) was 46.67% and the “% phytotoxicity” value ([3]; 160 g ai/ha, 18 DAT) was 8.33%. The “% phytotoxicity” value ([3]; 160 g ai/ha, 28 DAT) was 3.00%, the “% control” value ([4]; 1 appl, 140 g ai/ha, 5 DAT) was 10.00% and the “% control” value ([4]; 1 appl, 140 g ai/ha, 13 DAT) was 60.00%. For the same compound, the “% control” value ([4]; 1 appl, 140 g ai/ha, 21 DAT) was 50.00%, the “% control” value ([4]; 1 appl, 280 g ai/ha, 5 DAT) was 15.00% and the “% control” value ([4]; 1 appl, 280 g ai/ha, 13 DAT) was 57.50%. The “% control” value ([4]; 1 appl, 280 g ai/ha, 21 DAT) was 60.00%, the “% control” value ([4]; 2 appl, 140 g ai/ha, 5 DAT) was 15.00% and the “% control” value ([4]; 2 appl, 140 g ai/ha, 13 DAT) was 55.00%. For the same compound, the “% control” value ([4]; 2 appl, 140 g ai/ha, 21 DAT) was 52.50%, the “% control” value ([4]; 2 appl, 280 g ai/ha, 5 DAT) was 20.00% and the “% control” value ([4]; 2 appl, 280 g ai/ha, 13 DAT) was 65.00%. For the same compound, the “% control” value ([4]; 2 appl, 280 g ai/ha, 21 DAT) was 62.50%, the “% control” value ([5]; 7 DAT) was 41.70% and the “% control” value ([5]; 11 DAT) was 61.70%. The “% control” value ([5]; 18 DAT) was 61.70%, the “% phytotoxicity” value ([6]; 7 DAT) was 56.70% and the “% phytotoxicity” value ([6]; 11 DAT) was 38.30%. The “% phytotoxicity” value ([6]; 18 DAT) was 9.30%, the “% phytotoxicity” value (Tall fescue v. Coronado; DG Lite granule, no safener, 680 g ai/ha) was 20.0% and the “% phytotoxicity” value (Tall fescue v. Coronado; DG Lite granule, safener Cyprosulfamide (0.07%), 680 g ai/ha) was 22.5%. The “% phytotoxicity” value (Tall fescue v. Coronado; DG Lite granule, safener Formula 2.3 (0.07%), 680 g ai/ha) was 16.3%, the “% phytotoxicity” value (Tall fescue v. Coronado; DG Lite granule, safener Isoxadifen (0.07%), 680 g ai/ha) was 21.3% and the “% phytotoxicity” value (Tall fescue v. Coronado; Spray, no safener, 340 g ai/ha) was 18.8%. The “selective weed control in turfgrass, in words” value [7] was “suitable to combat undesired broadleaf weeds like clover and dandelion in turfgrass varieties” and the “weed control, in words” value (turfgrass weeds) was “effective at controlling a variety of turfgrass weeds, even when applied at low rates”.
